Measurements from patent US6218398A, “Nocathiacin antibiotics” (Bristol-Myers Squibb Company, priority 1999, dated 2001).
Converted amounts (≈) assume the structure as drawn. Read-outs that look alike come from different tables or passages of the source.

Key:
[1] = tested on: Streptococcus pneumoniae A9585; assay: MIC by conventional serial broth dilution assay; format: cell-based
[2] = tested on: Streptococcus pneumoniae/penicillin intermediate A27881; assay: MIC by conventional serial broth dilution assay; format: cell-based
[3] = tested on: Streptococcus pneumoniae/penicillin resistant A28272; assay: MIC by conventional serial broth dilution assay; format: cell-based
[4] = tested on: Enterococcus faecalis A20688; assay: MIC by conventional serial broth dilution assay; format: cell-based
[5] = tested on: Enterococcus faecalis A27519; assay: MIC by conventional serial broth dilution assay; format: cell-based
[6] = tested on: Enterococcus faecium A24885; assay: MIC by conventional serial broth dilution assay; format: cell-based
[7] = tested on: Enterococcus avium A27456; assay: MIC by conventional serial broth dilution assay; format: cell-based
[8] = tested on: Staphylococcus aureus/β-lactamase positive A15090; assay: MIC by conventional serial broth dilution assay; format: cell-based
[9] = tested on: Staphylococcus aureus/QC/ATCC#29213 A24407; assay: MIC by conventional serial broth dilution assay; format: cell-based
[10] = tested on: Staphylococcus aureus/homo methicillin resistant A27223; assay: MIC by conventional serial broth dilution assay; format: cell-based
[11] = tested on: Staphylococcus epidermidis A24548; assay: MIC by conventional serial broth dilution assay; format: cell-based
[12] = tested on: Staphylococcus haemolyticus A27298; assay: MIC by conventional serial broth dilution assay; format: cell-based
[13] = tested on: Moraxella catarrhalis/β-lactamase positive A22344; assay: MIC by conventional serial broth dilution assay; format: cell-based
[14] = tested on: Moraxella catarrhalis/β-lactamase positive A25409; assay: MIC by conventional serial broth dilution assay; format: cell-based
[15] = tested on: Haemophilus influenzae/β-lactamase negative A20191; assay: MIC by conventional serial broth dilution assay; format: cell-based; details: β-lactamase negative, read-out: MIC
[16] = tested on: Haemophilus influenzae/β-lactamase negative A20183; assay: MIC by conventional serial broth dilution assay; format: cell-based; details: β-lactamase negative, read-out: MIC
[17] = tested on: Haemophilus influenzae/β-lactamase positive A21515; assay: MIC by conventional serial broth dilution assay; format: cell-based; details: β-lactamase positive, read-out: MIC
Gram-positive bacteria [18] = assay: in vitro activity against Gram-positive bacteria; format: cell-based; details: e.g. multiple drug resistant Enterococcus faecium
[19] = tested on: Streptococcus pyogenes A9604; assay: MIC by conventional serial broth dilution assay; format: cell-based
[20] = tested on: Enterococcus faecium/thiostrepton resistant (10 ug/ml) SC15829; assay: MIC by conventional serial broth dilution assay; format: cell-based
[21] = tested on: Staphylococcus aureus A9537; assay: MIC by conventional serial broth dilution assay; format: cell-based
[22] = tested on: Staphylococcus aureus/hetero methicillin resistant A27218; assay: MIC by conventional serial broth dilution assay; format: cell-based
Micrococcus luteus A9852 = assay: MIC by conventional serial broth dilution assay; format: cell-based
Bacillus subtilis A9506A = assay: MIC by conventional serial broth dilution assay; format: cell-based
Escherichia coli A15119 = assay: MIC by conventional serial broth dilution assay; format: cell-based
Escherichia coli A22292 = assay: MIC by conventional serial broth dilution assay; format: cell-based
[23] = tested on: Escherichia coli/AcrA::Kan A28901; assay: MIC by conventional serial broth dilution assay; format: cell-based
[24] = tested on: Salmonella enteritidis A9531; assay: MIC by conventional serial broth dilution assay; format: cell-based; details: Salmonella enterica
Salmonella/WT A27207 = assay: MIC by conventional serial broth dilution assay; format: cell-based
Salmonella/RE A27208 = assay: MIC by conventional serial broth dilution assay; format: cell-based
[25] = tested on: Enterococcus faecium strain A28152; assay: antibiotic susceptibility of the MREF strain; format: cell-based; details: strain description; source not stated
Gram-positive bacteria [26] = details: reported for known thiazolyl peptides; cited from earlier work
[27] = β-lactamase positive, read-out: MIC

In the case of `C=C(NC(=O)c1csc(-c2nc3c(cc2O)-c2nc(cs2)C(=O)NC(C(C)O)C(=O)NC(=C(C)OC)c2nc(cs2)C(=O)NC2c4nc(cs4)C(=O)NC(COC(=O)c4c5c6c(cccc6n4O)COC(=O)C(O)C2OC5)c2nc-3cs2)n1)C(N)=O` (centres unmarked) [Nocathiacin III], the MIC ([1]; read-out: MIC) was ≤ 0.002 µg/mL, the MIC ([2]; penicillin intermediate, read-out: MIC) was ≤ 0.002 µg/mL and the MIC ([3]; penicillin resistant, read-out: MIC) was ≤ 0.002 µg/mL. For the same compound, the MIC ([4]; A20688, + 50% calf serum, read-out: MIC) was 0.25 µg/mL, the MIC ([4]; A20688, read-out: MIC) was 0.03 µg/mL (≈ 0.0237 µM) and the MIC ([5]; read-out: MIC) was 0.03 µg/mL (≈ 0.0237 µM). The MIC ([6]; read-out: MIC) was 0.03 µg/mL (≈ 0.0237 µM), the MIC ([7]; read-out: MIC) was 0.03 µg/mL (≈ 0.0237 µM) and the MIC ([8]; + 50% calf serum, read-out: MIC) was 0.03 µg/mL. The MIC [8, 27] was 0.007 µg/mL (≈ 0.00553 µM), the MIC ([9]; ATCC29213, QC/ATCC#29213, read-out: MIC) was 0.007 µg/mL (≈ 0.00553 µM) and the MIC ([10]; homo methicillin resistant, read-out: MIC) was 0.007 µg/mL (≈ 0.00553 µM). For the same compound, the MIC ([11]; read-out: MIC) was 0.007 µg/mL (≈ 0.00553 µM), the MIC ([12]; read-out: MIC) was 0.007 µg/mL (≈ 0.00553 µM) and the MIC [13, 27] was 0.06 µg/mL (≈ 0.0474 µM). For the same compound, the MIC [14, 27] was 0.06 µg/mL (≈ 0.0474 µM), the MIC [15] was > 64 µg/mL and the MIC [16] was > 64 µg/mL. For the same compound, the MIC [17] was > 64 µg/mL and the “inhibitory activity against Gram-positive bacteria” value (Gram-positive bacteria [18]) was “inhibitory activity at the nanomolar level”.
In the case of `C=C(NC(=O)c1csc(-c2nc3c(cc2O)-c2nc(cs2)C(=O)NC(C(C)O)C(=O)NC(=C(C)OC)c2nc(cs2)C(=O)NC2c4nc(cs4)C(=O)NC(COC(=O)c4[nH]c5cccc6c5c4COC2C(OC2CC(C)(O)C(N(C)C)C(C)O2)C(=O)OC6)c2nc-3cs2)n1)C(N)=O` (centres unmarked) [Nocathiacin II], the MIC [1] was 0.015 µg/mL (≈ 0.0106 µM), the MIC [2] was 0.015 µg/mL (≈ 0.0106 µM) and the MIC [3] was 0.015 µg/mL (≈ 0.0106 µM). It also gave an MIC [19] of 0.125 µg/mL (≈ 0.0879 µM), an MIC ([4]; A20688) of 0.5 µg/mL (≈ 0.352 µM) and an MIC ([4]; A20688, + 50% calf serum) of 0.5 µg/mL. For the same compound, the MIC [5] was 0.5 µg/mL (≈ 0.352 µM), the MIC [6] was 0.5 µg/mL (≈ 0.352 µM) and the MIC [20] was 0.5 µg/mL (≈ 0.352 µM). The MIC [7] was 0.5 µg/mL (≈ 0.352 µM), the MIC [21] was 0.06 µg/mL (≈ 0.0422 µM) and the MIC ([8]; + 50% calf serum) was 0.5 µg/mL. The MIC ([8]; β-lactamase positive) was 0.5 µg/mL (≈ 0.352 µM), the MIC ([9]; ATCC29213) was 0.5 µg/mL (≈ 0.352 µM) and the MIC ([22]; + 50% calf serum) was 0.5 µg/mL. For the same compound, the MIC ([22]; hetero methicillin resistant) was 0.5 µg/mL (≈ 0.352 µM), the MIC ([10]; + 50% calf serum) was 0.125 µg/mL and the MIC ([10]; homo methicillin resistant) was 0.125 µg/mL (≈ 0.0879 µM). For the same compound, the MIC (Micrococcus luteus A9852) was 0.125 µg/mL (≈ 0.0879 µM), the MIC (Bacillus subtilis A9506A) was 0.125 µg/mL (≈ 0.0879 µM) and the MIC [11] was 0.125 µg/mL (≈ 0.0879 µM). The MIC [12] was 0.25 µg/mL (≈ 0.176 µM), the MIC (Escherichia coli A15119) was > 128 µg/mL and the MIC (Escherichia coli A22292) was > 128 µg/mL. The MIC [23] was > 128 µg/mL, the MIC [24] was > 128 µg/mL and the MIC [13] was 0.125 µg/mL (≈ 0.0879 µM). The MIC [14] was 0.125 µg/mL (≈ 0.0879 µM), the MIC (Salmonella/WT A27207) was > 128 µg/mL and the MIC (Salmonella/RE A27208) was > 128 µg/mL. The “inhibitory activity against Gram-positive bacteria” value (Gram-positive bacteria [18]) was “inhibitory activity at the nanomolar level”.
With `O=C(N[C@H](CO)[C@H](O)c1ccc([N+](=O)[O-])cc1)C(Cl)Cl` [chloramphenicol] the “resistance/sensitivity of E. faecium strain A28152 to the antibiotic” value (from here on “resistance/sensitivity”) [25] was “sensitive”.
For `O=C(O)c1cn(C2CC2)c2cc(N3CCNCC3)c(F)cc2c1=O` [ciprofloxacin], the “resistance/sensitivity” value [25] was “resistant”.
In the case of `CCC[C@@H]1C[C@@H](C(=O)N[C@@H]([C@H]2O[C@H](SC)[C@H](O)[C@@H](O)[C@H]2O)[C@H](C)Cl)N(C)C1` [clindamycin], the “resistance/sensitivity” value [25] was “resistant”.
With `CC[C@H]1OC(=O)[C@H](C)[C@@H](O[C@H]2C[C@@](C)(OC)[C@@H](O)[C@H](C)O2)[C@H](C)[C@@H](O[C@@H]2O[C@H](C)C[C@H](N(C)C)[C@H]2O)[C@](C)(O)C[C@@H](C)C(=O)[C@H](C)[C@@H](O)[C@]1(C)O` [erythromycin] the “resistance/sensitivity” value [25] was “resistant”.
For `CO/C(C)=C1/NC(=O)[C@H]([C@@H](C)O)NC(=O)c2csc(n2)-c2cc(O)c(-c3nc(C(N)=O)cs3)nc2-c2csc(n2)[C@@H]2CSC(=O)c3[nH]c4cccc5c4c3CO[C@@H](C(NC(=O)c3csc1n3)c1nc(cs1)C(=O)N2)[C@@H](O[C@H]1C[C@](C)(O)[C@H](N(C)C)[C@H](C)O1)C(=O)OC5` [glycothiohexide-α], the “antimicrobial activity against Gram-positive bacteria in vitro” value (shortened to “antimicrobial activity”) (Gram-positive bacteria [26]) is listed as “potent antimicrobial activity”.
In the case of `C=C(NC(=O)c1csc(-c2nc3c(cc2O)-c2nc(cs2)C(=O)NC(C(C)O)C(=O)N/C(=C\C)c2nc(cs2)C(=O)NC2CC(O)C(=O)OCc4cccc5[nH]c(c(C)c45)C(=O)SCC(NC(=O)c4csc2n4)c2nc-3cs2)n1)C(N)=O` (centres unmarked) [nosiheptide], the “antimicrobial activity” value (Gram-positive bacteria [26]) is given as “potent antimicrobial activity”.
With `CC1(C)S[C@@H]2[C@H](NC(=O)Cc3ccccc3)C(=O)N2[C@H]1C(=O)O` [penicillin G] the “resistance/sensitivity” value [25] was “resistant”.
In the case of `CO[C@H]1/C=C/O[C@@]2(C)Oc3c(C)c(O)c4c(O)c(c(/C=N/N5CCN(C)CC5)c(O)c4c3C2=O)NC(=O)/C(C)=C\C=C\[C@H](C)[C@H](O)[C@@H](C)[C@@H](O)[C@@H](C)[C@H](OC(C)=O)[C@@H]1C` [rifampin], the “resistance/sensitivity” value [25] was “resistant”.
For `[H]/N=C(/N)N[C@H]1[C@H](O)[C@@H](O)[C@H](O[C@@H]2O[C@@H](C)[C@](O)(C=O)[C@H]2O[C@@H]2O[C@@H](CO)[C@H](O)[C@@H](O)[C@@H]2NC)[C@@H](N/C(N)=N\[H])[C@@H]1O` [streptomycin], the “resistance/sensitivity” value [25] was “resistant”.
In the case of `CN(C)C1C(=O)C(C(N)=O)=C(O)C2(O)C(=O)C3=C(O)c4c(O)cccc4C(C)(O)C3CC12` (centres unmarked) [tetracycline], the “resistance/sensitivity” value [25] was “resistant”.
For `C=C(NC(=O)C(=C)NC(=O)c1csc(C2=N[C@@H]3c4csc(n4)[C@H]4NC(=O)c5csc(n5)[C@H]([C@](C)(O)[C@@H](C)O)NC(=O)[C@H]5CSC(=N5)/C(=C/C)NC(=O)[C@H]([C@@H](C)O)NC(=O)c5csc(n5)[C@]3(CC2)NC(=O)[C@H](C)NC(=O)C(=C)NC(=O)[C@H](C)NC(=O)[C@H]([C@@H](C)CC)N[C@@H]2C=Cc3c([C@H](C)O)cc(nc3[C@H]2O)C(=O)O[C@@H]4C)n1)C(N)=O` [thiostrepton], the “antimicrobial activity” value (Gram-positive bacteria [26]) is given as “potent antimicrobial activity”.
With `CN[C@H](CC(C)C)C(=O)N[C@H]1C(=O)N[C@@H](CC(N)=O)C(=O)N[C@H]2C(=O)N[C@H]3C(=O)N[C@H](C(=O)N[C@H](C(=O)O)c4cc(O)cc(O)c4-c4cc3ccc4O)[C@H](O)c3ccc(c(Cl)c3)Oc3cc2cc(c3O[C@@H]2O[C@H](CO)[C@@H](O)[C@H](O)[C@H]2O[C@H]2C[C@](C)(N)[C@H](O)[C@H](C)O2)Oc2ccc(cc2Cl)[C@H]1O` [vancomycin] the “resistance/sensitivity” value [25] was “resistant”.
For gentamicin, the “resistance/sensitivity” value [25] was “resistant”.
With teicoplanin the “resistance/sensitivity” value [25] was “resistant”.
